From patent publication US10961246B2, “18F-labelled folates as PET radiotracers” (MERCK & CIE, priority 2008, dated 2021)

Assays:
folate receptor [1] = target: T1, folate receptor (Homo sapiens, UniProt P15328); test: Ex vivo biodistribution study in mice bearing KB tumor xenografts, control vs folic acid blockade; design: species or system male NMRI nu/nu mice; conditions: ~2 MBq radiotracer; blockade group 200 μg natural folic acid 10 min prior; sacrificed 105 min post injection; KB tumor
T1 construct: endogenous in cells; host or cells: KB tumor xenografts in male NMRI nu/nu mice
Procedure: (§1) γ-[^18F]fluoro-folic acid was applied in ex vivo biodistribution studies using male NMRI nu/nu mice bearing KB tumor xenografts. ˜2 MBq of the radiotracer were injected into each animal. In a blockade group, 200 μg natural folic acid was injected 10 min prior to the radiotracer. The animals were sacrificed 105 min post injection.

folate receptor [2] = test: as above; design: species or system male NMRI nu/nu mice
Procedure: as §1

folate receptor [3] = target: T1, folate receptor; format: in vivo, male NMRI nu/nu mice; conditions: blockade 200 μg natural folic acid 10 min prior; scans 75-105 min post injection
Procedure: (§2) In vivo PET imaging using the γ-[^18F]fluoro-folic acid was performed in male NMRI nu/nu mice bearing KB tumor xenografts. Ca. 10 MBq of the radiotracer were injected into each animal. In the blockade group, 200 μg natural folic acid was injected 10 min prior to the radiotracer. The PET scans were acquired from 75 min to 105 min post injection.
(§3) This pattern is consistent with the physiological distribution of the folate receptor and points out the high specificity of γ-[^18F]fluoro-folic acid.
(§4) FIG. 3 show representative series of normalized horizontal slices of whole body PET scans using γ-[^18F]fluoro-folic acid under control and blockade conditions. Arrows with circles indicate the tumor site and arrows with squares indicate the kidneys.

folate receptor [4] = format: in vivo, male NMRI nu/nu mice; conditions: ca. 10 MBq; scans 75-105 min post injection
Procedure: as §2, §3, §4

T1 sequence (P15328 25-234 limits assumed): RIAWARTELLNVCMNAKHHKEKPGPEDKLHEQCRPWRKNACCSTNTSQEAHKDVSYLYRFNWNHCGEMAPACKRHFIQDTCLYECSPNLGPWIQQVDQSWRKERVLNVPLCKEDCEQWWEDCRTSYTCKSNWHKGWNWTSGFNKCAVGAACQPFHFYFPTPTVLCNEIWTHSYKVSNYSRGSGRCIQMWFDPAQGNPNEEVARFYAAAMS

Q: Which “specific blockade of radiotracer uptake in folate receptor-positive KB tumors” value (folate receptor [1]) does the source give for `Nc1nc2ncc(CNc3ccc(C(=O)N[C@@H](CC([18F])C(=O)O)C(=O)O)cc3)nc2c(=O)[nH]1` (stereo partly shown) [γ-[^18F]fluoro-folic acid, γ-[^18F]fluorofolic acid] here?
A: 90.0%

Q: What about the “uptake in folate receptor-positive tissues, such as tumor and kidney (FIG. 2)” value (folate receptor [2]; control group vs blockade group) of the same compound?
A: high specific uptake

Q: And the “specific blockade of radiotracer uptake in the kidneys” value (folate receptor [2]; ~2 MBq radiotracer, blockade group 200 μg natural folic acid 10 min prior, sacrificed 105 min post injection, kidneys)?
A: 86.0%

Q: And the “specificity of uptake in PET” value (folate receptor [3])?
A: highly specific and blocked by natural folic acid

Q: And the “uptake in liver cells (PET)” value (folate receptor [4])?
A: radioactivity accumulation

Q: And the “uptake in the kidney cortex (PET)” value (folate receptor [4])?
A: high specific uptake

Q: And the “uptake in the kidney medulla (PET)” value (folate receptor [4])?
A: no uptake
